Experimental data: ChEMBL document CHEMBL4152282, “Synthesis and photodynamic activities of integrin-targeting silicon(IV) phthalocyanine-cRGD conjugates” (Eur J Med Chem, 2018); call rule not given here

Assays:
[1] = Aggregation behavior of compound in RPMI 1640 medium with 0.05% cremophor EL at 3 uM by UV-vis absorption spectra analysis; format: physicochemical
[2] = Aggregation behavior of compound in DMF at 1 to 6 uM by UV-vis absorption spectra analysis; format: physicochemical
[3] = Photostability in DMF assessed as release of singlet oxygen at 4 uM preincubated with DPBF in dark followed by irradiation with red light by DPBF decay assay; format: functional
[4] = Aggregation behavior of compound in water at 3 uM by UV-vis absorption spectra analysis; format: physicochemical; conditions: buffer
HT-29 [5] = assay: Photocytotoxicity against human HT-29 cells with high expression of alphaVbeta3 integrin assessed as decrease in cell viability preincubated for 2 hrs followed by red light irradiation and measured after overnight incubation by MTT assay; format: functional, cell-based; conditions: HT-29, light or radiation study
HT-29 [6] = assay: Photocytotoxicity against human HT-29 cells with high expression of alphaVbeta3 integrin assessed as decrease in cell viability preincubated for 24 hrs followed by red light irradiation and measured after overnight incubation by MTT assay; format: functional, cell-based; conditions: HT-29, light or radiation study
MCF7 [7] = assay: Photocytotoxicity against human MCF7 cells with low expression of alphaVbeta3 integrin assessed as decrease in cell viability preincubated for 2 hrs followed by red light irradiation and measured after overnight incubation by MTT assay; format: functional, cell-based; conditions: MCF7, light or radiation study
MCF7 [8] = assay: Photocytotoxicity against human MCF7 cells with low expression of alphaVbeta3 integrin assessed as decrease in cell viability preincubated for 24 hrs followed by red light irradiation and measured after overnight incubation by MTT assay; format: functional, cell-based; conditions: MCF7, light or radiation study
[9] = Selectivity ratio of IC50 for human MCF7 cells with low expression of alphaVbeta3 integrin to IC50 for human HT-29 cells with high expression of alphaVbeta3 integrin preincubated for 2 hrs followed by red light irradiation and measured after overnight incubation by MTT assay; format: functional
[10] = Selectivity ratio of IC50 for human MCF7 cells with low expression of alphaVbeta3 integrin to IC50 for human HT-29 cells with high expression of alphaVbeta3 integrin preincubated for 24 hrs followed by red light irradiation and measured after overnight incubation by MTT assay; format: functional
[11] = Dark toxicity against human HT-29 cells with high expression of alphaVbeta3 integrin assessed as decrease in cell viability incubated for 2 to 24 hrs by MTT assay; format: cell-based
[12] = Dark toxicity against human MCF7 cells with low expression of alphaVbeta3 integrin assessed as decrease in cell viability incubated for 2 to 24 hrs by MTT assay; format: cell-based
HaCaT [13] = assay: Photocytotoxicity against human HaCaT cells assessed as decrease in cell viability preincubated for 2 hrs followed by red light irradiation and measured after overnight incubation by MTT assay; format: cell-based; conditions: light or radiation study
HaCaT [14] = assay: Photocytotoxicity against human HaCaT cells assessed as decrease in cell viability preincubated for 24 hrs followed by red light irradiation and measured after overnight incubation by MTT assay; format: cell-based; conditions: light or radiation study
[15] = Selectivity index, ratio of IC50 for photocytotoxicity against human HaCaT cells to IC50 for photocytotoxicity against human HT-29 cells with high expression of alphaVbeta3 integrin; format: toxicity, cell-based; conditions: read-out: Ratio IC50
[16] = Drug uptake in human MCF7 cells at 1 uM after 24 hrs by confocal laser scanning microscopic method; format: ADME, cell-based; conditions: mcf7, 24 h
HT-29 [17] = assay: Induction of reactive oxygen species formation in human HT-29 cells with high expression of alphaVbeta3 integrin preincubated for 2 hrs followed by DCF-DA dye addition and measured after 30 mins in absence of light by fluorescence assay; format: cell-based; conditions: ht-29, 0.5 h
MCF7 [18] = assay: Induction of reactive oxygen species formation in human MCF7 cells with low expression of alphaVbeta3 integrin preincubated for 2 hrs followed by DCF-DA dye addition and measured after 30 mins in absence of light by fluorescence assay; format: cell-based; conditions: mcf7, 0.5 h
HT-29 [19] = assay: Induction of reactive oxygen species formation in human HT-29 cells with high expression of alphaVbeta3 integrin preincubated for 2 hrs followed by incubation with DCF-DA dye for 30 mins and measured after irradiation by fluorescence assay; format: functional, cell-based
MCF7 [20] = assay: Induction of reactive oxygen species formation in human MCF7 cells with […] expression of alphaVbeta3 integrin preincubated for 2 hrs followed by incubation with DCF-DA dye for 30 mins and measured after irradiation by fluorescence assay; format: functional, cell-based
[21] = Drug uptake in lysosome of human HT-29 cells at 1 uM incubated for 0.5 hrs by Lyso Tracker red dye-based confocal laser scanning microscopic method; format: ADME, subcellular; conditions: ht-29, 0.5 h
Mus musculus [22] = assay: Drug uptake in KM mouse xenografted with […] cells at 0.5 nmol/g, iv measured up to 24 hrs by fluorescence imaging method; format: ADME, organism-based; conditions: in vivo
[23] = Drug uptake in tumor of KM mouse xenografted with […] cells expressing integrin at 0.5 nmol/g, iv measured after 1 to 24 hrs by fluorescence imaging method; format: ADME, organism-based, Neoplasm; conditions: in vivo
Mus musculus [24] = assay: Drug uptake in KM mouse xenografted with […] cells at 0.5 nmol/g, iv measured after 24 hrs by fluorescence imaging method; format: ADME, organism-based; conditions: in vivo
[25] = Ratio of drug level in tumor of KM mouse xenografted with […] cells expressing integrin to liver of KM mouse xenografted with […] cells at 0.5 nmol/g, iv measured after 24 hrs; format: ADME, organism-based, Tumor/tissue; conditions: in vivo
[26] = Ratio of drug level in tumor of KM mouse xenografted with […] cells expressing integrin to kidney of KM mouse xenografted with […] cells at 0.5 nmol/g, iv measured after 24 hrs; format: ADME, organism-based, Tumor/tissue; conditions: in vivo
H22 [27] = assay: Antitumor activity against […] cells expressing integrin xenografted in KM mouse assessed as tumor growth inhibition at 0.5 nmol/g, iv administered 12 hrs followed by irradiation with laser for 6 mins and measured after 14 days; format: functional
H22 [28] = assay: Dark toxicity against […] cells expressing integrin xenografted in KM mouse at 0.5 nmol/g, iv administered 12 hrs measured every other day for 14 days; format: organism-based; conditions: in vivo, 336 h

Activity [1]: Not Active | Activity [2]: Not Active | Activity [4]: Not Active | Drug uptake [16]: Not Active | Drug uptake [21]: Active | Drug uptake (Mus musculus [22]): Active | Drug uptake [23]: Active | Drug uptake (Mus musculus [24]): Not Active | Ratio [25]: 2.1 | Ratio [26]: 2
Structure (SMILES): N=C(N)NCCC[C@@H]1NC(=O)[C@H](Cc2cn(CCOCCOCCO[Si]3(OCCOCCOCCn4cc(C[C@@H]5NC(=O)[C@@H](Cc6ccccc6)NC(=O)[C@H](CC(=O)O)NC(=O)CNC(=O)[C@H](CCCNC(=N)N)NC5=O)nn4)n4c5c6ccccc6c4/N=C4N=C(/N=c6/c7ccccc7/c(n63)=N/C3=NC(=N\5)/c5ccccc53)c3ccccc3\4)nn2)NC(=O)[C@@H](Cc2ccccc2)NC(=O)[C@H](CC(=O)O)NC(=O)CNC1=O (stereo partly drawn)
Stability [3]: Unstable | IC50 (HT-29 [5]): 30 nM | IC50 (HT-29 [6]): 23 nM | IC50 (MCF7 [7]): 100 nM | IC50 (MCF7 [8]): 66 nM | Ratio IC50 [9]: 3.33 | Ratio IC50 [10]: 2.87 | Activity [11]: Non-Toxic | Activity [12]: Non-Toxic | IC50 (HaCaT [13]): 60 nM | IC50 (HaCaT [14]): 56 nM | selectivity ratio [15]: 2 | Activity (HT-29 [17]): Non-Toxic | Activity (MCF7 [18]): Non-Toxic | Activity (HT-29 [19]): Dose-dependent effect | Activity (MCF7 [20]): Dose-dependent effect | TGI (H22 [27]): 75% | Activity (H22 [28]): Non-Toxic
